Patent US20250041306A1, “TARGETED PROTEASE DEGRADATION (TED) PLATFORM” (EUBULUS BIOTHERAPEUTICS INC., priority 2021, published 2025)
pEC50: −log10 of the molar value. Read-outs that look alike come from different tables or passages of the source.

Legend:
Assay type in all cases: cell-based
[1] = tested on: Human Small Cell Lung Cancer NCI-H82; assay: Cell proliferation experiment (Alarm blue), H82
Description: (§1) The cells were cultured in conventional ways, and the cells should be passed for at least 2 generations before plating. Cells at the logarithmic growth phase were collected, prepared into single cell suspensions and counted. The concentration of cells was adjusted to desired concentration, and cells were inoculated into a 96-well cell culture plate at 100 μl per well. 100 μL of complete medium of the test compound were added to each well, 2 replicate wells for each concentration were set up, and diluted with a 5-fold gradient, and continued to culture for 72 h. All cells were subjected to EC50 test for corresponding samples.
(§2) The fluorescence intensity of each well was detected using the Alarm blue method, and IC50 was calculated.
(§3) IC50 was calculated according to the following formula:
(§4) [formula] • wherein Min, Max and Slope represent the minimum, maximum and slope respectively.

[2] = tested on: human gastric carcinoma cells N87; assay: Cell proliferation experiment (Alarm blue), N87
Description: as §1, §2, §3, §4

[3] = tested on: Human Colon Cancer cells Colo205; assay: Cell proliferation experiment (Alarm blue), Colo205
Description: as §1, §2, §3, §4

[4] = tested on: Human Small Cell Lung Cancer H69; assay: Cell proliferation experiment (Alarm blue), H69
Description: as §1, §2, §3, §4

Human Colon Cancer HT-29 = assay: Cell proliferation experiment (Alarm blue), HT-29
Description: as §1, §2, §3, §4

[5] = H82 cells, 72 h culture, read-out: Anti cell proliferative activity EC50, H82
[6] = N87 cells, 72 h culture, read-out: Anti cell proliferative activity EC50, N87
[7] = Colo205 cells, 72 h culture, read-out: Anti cell proliferative activity EC50, Colo205
[8] = H69 cells, 72 h culture, read-out: Anti cell proliferative activity EC50, H69
[9] = HT-29 cells, 72 h culture, read-out: Anti cell proliferative activity EC50, HT-29

| Structure (SMILES) | pEC50 [1, 5] | pEC50 [2, 6] | pEC50 [3, 7] | pEC50 [4, 8] | pEC50 (Human Colon Cancer HT-29; [9]) | other results |
| --- | --- | --- | --- | --- | --- | --- |
| CNC(=O)c1ccccc1Nc1nc(Nc2ccc(N3CCN(C(=O)NC4CCC(N(CCC#Cc5ccc6c(c5)CN(C5CCC(=O)NC5=O)C6=O)C(=O)OCc5ccc(NC(=O)[C@H](CC(N)=O)NC(=O)[C@H](C)NC(=O)[C@H](C)NC(=O)CCCCCN6C(=O)CC(SC[C@H](NC(=O)CC[C@H](NC(=O)c7ccc(NCc8cnc9nc(N)[nH]c(=O)c9n8)cc7)C(=O)O)C(=O)N[C@H](Cc7ccccc7)C(=O)N[C@H]7CSSC[C@@H](C(=O)N[C@H](CO)[C@@H](C)O)NC(=O)[C@H]([C@@H](C)O)NC(=O)[C@H](CCCCN)NC(=O)[C@@H](Cc8c[nH]c9ccccc89)NC(=O)[C@H](Cc8ccccc8)NC7=O)C6=O)cc5)CC4)CC3)cc2)ncc1Cl (some centres unmarked) [UB-181263] | 7.28 | < 6.00 | 8.04 | 6.72 | < 6.00 |  |
| CC(OC(=O)N(CCC#Cc1ccc2c(c1)CN(C1CCC(=O)NC1=O)C2=O)C1CCC(NC(=O)N2CCN(c3ccc(Nc4ncc(Cl)c(Nc5ccccc5C(N)=O)n4)cc3)CC2)CC1)C(C)SSC[C@H](NC(=O)CCOCCOCCOCCOCCOCCOCCOCCOCCNC(=O)CC[C@H](NC(=O)c1ccc(NCc2cnc3nc(N)[nH]c(=O)c3n2)cc1)C(=O)O)C(=O)N[C@H](Cc1ccccc1)C(=O)N[C@H]1CSSC[C@@H](C(=O)N[C@H](CO)[C@@H](C)O)NC(=O)[C@H]([C@@H](C)O)NC(=O)[C@H](CCCCN)CC(=O)[C@@H](Cc2c[nH]c3ccccc23)NC(=O)[C@H](Cc2ccccc2)NC1=O (some centres unmarked) [UB-181280] | 6.19 | < 6.00 | 8.72 | < 6.00 | < 6.00 |  |
| C[C@H](NC(=O)[C@H](C)NC(=O)[C@H](CS(=O)(=O)O)NC(=O)CCN1C(=O)CC(SC[C@H](N)C(=O)N[C@H](Cc2ccccc2)C(=O)N[C@H]2CSSC[C@@H](C(=O)N[C@H](CO)[C@@H](C)O)NC(=O)[C@H]([C@@H](C)O)NC(=O)[C@H](CCCCN)NC(=O)[C@@H](Cc3c[nH]c4ccccc34)NC(=O)[C@H](Cc3ccccc3)CC2=O)C1=O)C(=O)N[C@@H](CC(N)=O)C(=O)Nc1ccc(COC(=O)N(CCC#Cc2ccc3c(c2)CN(C2CCC(=O)NC2=O)C3=O)C2CCC(NC(=O)N3CCN(c4ccc(Nc5ncc(Cl)c(Nc6ccccc6C(N)=O)n5)cc4)CC3)CC2)cc1 (some centres unmarked) [UB-181345] | 7.03 | 6.52 | 6.56 | < 6.00 | < 6.00 |  |
| CC[C@@H]1C(=O)N(C)c2cnc(Nc3ccc(-c4cn([C@H]5CC[C@@H](N(CCOCCC#Cc6cccc7c6CN(C6CCC(=O)NC6=O)C7=O)C(=O)OCc6ccc(NC(=O)[C@H](CC(N)=O)NC(=O)[C@H](C)NC(=O)[C@H](C)NC(=O)CCCCCN7C(=O)CC(SC[C@H](NC(=O)[C@H](CC(=O)O)NC(=O)[C@H](CC(=O)O)NC(=O)[C@H](CCCNC(=N)N)NC(=O)[C@H](CC(=O)O)NC(=O)CCC(NC(=O)c8ccc(NCc9cnc%10nc(N)[nH]c(=O)c%10n9)cc8)C(=O)O)C(=O)O)C7=O)cc6)CC5)nn4)cc3OC)nc2N1C1CCCC1 (some centres unmarked) [UB-181337] |  |  |  |  |  | pEC50 ([1]; 72 h): 6.74; pEC50 ([2]; 72 h): 6.76; pEC50 ([3]; 72 h): 7.48; pEC50 ([4]; 72 h): 7.10; pEC50 (Human Colon Cancer HT-29; 72 h): 6.63 |
| NC(=O)c1ccccc1Nc1nc(Nc2ccc(N3CCN(C(=O)N[C@H]4CC[C@@H](NC5CN(CC#Cc6ccc7c(c6)CN(C6CCC(=O)NC6=O)C7=O)C5)CC4)CC3)cc2)ncc1Cl (some centres unmarked) [UB-181270] |  |  |  |  |  | pEC50 ([1]; Homo sapiens, NCI-H82, 72 h, H82 cells, 72 h culture, read-out: Anti cell proliferative activity EC50, H82): 6.83; pEC50 ([2]; Homo sapiens, 72 h, N87 cells, 72 h culture, read-out: Anti cell proliferative activity EC50, N87): 6.59; pEC50 ([3]; Homo sapiens, COLO 205, 72 h, Colo205 cells, 72 h culture, read-out: Anti cell proliferative activity EC50, Colo205): 6.66; pEC50 ([4]; Homo sapiens, NCI-H69, H69 cells, 72 h culture, read-out: Anti cell proliferative activity EC50, H69): 6.34; pEC50 (Human Colon Cancer HT-29; Homo sapiens, HT-29 cells, 72 h culture, read-out: Anti cell proliferative activity EC50, HT-29): 6.02 |
| CC(C)c1cc(-c2nnc(O)n2-c2ccc3c(ccn3CCC3CCN(C(=O)NCCOCCOCCOCCOCCOCCOCCOCCOCCC(=O)N[C@@H](CSC4CC(=O)N(CCCCCC(=O)N[C@@H](C)C(=O)N[C@@H](C)C(=O)N[C@@H](CC(N)=O)C(=O)Nc5ccc(COC(=O)N(CCC#Cc6ccc7c(c6)CN(C6CCC(=O)NC6=O)C7=O)C6CCC(NC(=O)N7CCN(c8ccc(Nc9ncc(Cl)c(Nc%10ncc(Cl)c(Nc%11ccccc%11C(N)=O)n%10)n9)cc8)CC7)CC6)cc5)C4=O)C(=O)N[C@H](Cc4ccccc4)C(=O)N[C@H]4CSSC[C@@H](C(=O)N[C@H](CO)[C@@H](C)O)NC(=O)[C@H]([C@@H](C)O)NC(=O)[C@H](CCCCN)NC(=O)[C@@H](Cc5c[nH]c6ccccc56)NC(=O)[C@H](Cc5ccccc5)NC4=O)CC3)c2)c(O)cc1O (some centres unmarked) [UB-181289] | 6.39 | 6.16 | 6.21 | < 6.00 | < 6.00 |  |
| CC[C@@H]1C(=O)N(C)c2cnc(Nc3ccc(-c4cn([C@H]5CC[C@@H](N(CCOCCC#Cc6cccc7c6CN(C6CCC(=O)NC6=O)C7=O)C(=O)OCCSSC[C@H](NC(=O)CC[C@H](NC(=O)c6ccc(NCc7cnc8nc(N)[nH]c(=O)c8n7)cc6)C(=O)O)C(=O)N[C@H](Cc6ccccc6)C(=O)N[C@H]6CSSC[C@@H](C(=O)N[C@H](CO)[C@@H](C)O)NC(=O)[C@H]([C@@H](C)O)NC(=O)[C@H](CCCCN)NC(=O)[C@@H](Cc7c[nH]c8ccccc78)NC(=O)[C@H](Cc7ccccc7)NC6=O)CC5)nn4)cc3OC)nc2N1C1CCCC1 (some centres unmarked) [UB-181339] | 6.63 | 6.34 | 6.60 | < 6.00 | < 6.00 |  |
